In the CheMixHub viscosity set:
Values joined by “and” are separate entries in the source; they are usually repeats but may differ in a detail not shown here. Equal entries are not always repeated.

Assay: xn = mol fraction of the nth substance listed
Details: 100 kPa

CN1CCCN(C)C1=O + O
viscosity
Details | 303.15 K | 308.15 K | 313.15 K | 318.15 K | 323.15 K
x1 = 0.007139 | 0.942 mPa·s | 0.848 mPa·s | 0.769 mPa·s | 0.699 mPa·s | –
x1 = 0.01508 | 1.127 mPa·s | 1.012 mPa·s | 0.919 mPa·s | 0.843 mPa·s | –
x1 = 0.0297 | 1.386 mPa·s | 1.236 mPa·s | 1.112 mPa·s | 1.002 mPa·s | –
x1 = 0.0568 | 1.979 mPa·s | 1.733 mPa·s | 1.538 mPa·s | 1.379 mPa·s | –
x1 = 0.08573 | 2.774 mPa·s | 2.371 mPa·s | 2.05 mPa·s | 1.791 mPa·s | –
x1 = 0.1227 | 3.836 mPa·s | 3.224 mPa·s | 2.741 mPa·s | 2.354 mPa·s | –
x1 = 0.1461 | 4.568 mPa·s | 3.799 mPa·s | 3.201 mPa·s | 2.728 mPa·s | –
x1 = 0.1745 | 5.342 mPa·s | 4.401 mPa·s | 3.676 mPa·s | 3.114 mPa·s | –
x1 = 0.2062 | 5.943 mPa·s | 4.87 mPa·s | 4.051 mPa·s | 3.414 mPa·s | –
x1 = 0.2453 | 6.471 mPa·s | 5.287 mPa·s | 4.386 mPa·s | 3.685 mPa·s | –
x1 = 0.2961 | 6.828 mPa·s | 5.569 mPa·s | 4.616 mPa·s | 3.878 mPa·s | –
x1 = 0.3486 | 6.796 mPa·s | 5.568 mPa·s | 4.626 mPa·s | 3.9 mPa·s | –
x1 = 0.3968 | 6.483 mPa·s | 5.332 mPa·s | 4.45 mPa·s | 3.744 mPa·s | –
x1 = 0.4616 | 6.161 mPa·s | 5.13 mPa·s | 4.326 mPa·s | 3.692 mPa·s | –
x1 = 0.5081 | 5.768 mPa·s | 4.838 mPa·s | 4.11 mPa·s | 3.531 mPa·s | –
x1 = 0.5809 | 5.129 mPa·s | 4.357 mPa·s | 3.75 mPa·s | 3.257 mPa·s | –
x1 = 0.6498 | 4.532 mPa·s | 3.892 mPa·s | 3.37 mPa·s | 2.946 mPa·s | –
x1 = 0.6917 | 4.245 mPa·s | 3.672 mPa·s | 3.202 mPa·s | 2.817 mPa·s | –
x1 = 0.797 | 3.571 mPa·s | 3.134 mPa·s | 2.772 mPa·s | 2.468 mPa·s | –
x1 = 0.8669 | 3.203 mPa·s | 2.837 mPa·s | 2.531 mPa·s | 2.274 mPa·s | –
x1 = 0.9357 | 2.957 mPa·s | 2.647 mPa·s | 2.384 mPa·s | 2.16 mPa·s | –
x1 = 0.9554 | 2.834 mPa·s | 2.533 mPa·s | 2.283 mPa·s | 2.071 mPa·s | –
x2 = 0.0016 | – | 2.348 mPa·s and 2.365 mPa·s | 2.126 mPa·s and 2.141 mPa·s | 1.937 mPa·s and 1.95 mPa·s | 1.777 mPa·s and 1.784 mPa·s
x2 = 0.0169 | – | 2.425 mPa·s | 2.191 mPa·s | 1.992 mPa·s | 1.819 mPa·s
